From patent US20250027930A1, “SMALL MOLECULES FOR REPROGRAMING ANTI-TUMOR IMMUNITY OF T CELLS” (THE SCRIPPS RESEARCH INSTITUTE, priority 2021, published 2025) come the findings set out here.

SMILES strings stand for the structures.

Series [1] deals with OT-1 cells. The experiment in a line: OT-I-Tcf7GFP splenocyte screen: proliferation and Tim3−TCF-1+ ratio. Conditions: Day7; for Tim3^−TCF-1^+ ratio of CD8^+ T cells (%): w/o 2.6; for activity at 60000 µM / activity at 80000 µM: Mus musculus, Splenocyte, 168 h, OT-1 cells, read-out: Proliferation fold, Normalized to W/O. Format: cell-based, mouse. Here is the method:
Cell number was recorded on day 3 and day 7. On day 7, cells were stained with anti-CD8a (PerCP-Cy5.5) and anti-Tim3 (BV421) antibodies for flow cytometry or plate reader analysis.
Because TCF1 expression positively correlates with T cell stemness, the greater signal of EGFP a T cell expresses, the less differentiated the T cell is. Furthermore, if the compound also facilitates T cells proliferation, there would be more T cells per well in comparison to the untreated control. Therefore, a compound that not only maintains TCF-1 expression but also facilitates T cell growth would produce the strongest green fluorescence intensity. […] GlcA stands for glucuronic acid.

The next series relates to P14 cells. The experiment in a line: P14 splenocyte in vitro activation, re-stimulation and expansion. Format: cell-based, mouse. The note with it: for Fold of proliferation, Normalized to W/O: P14 cells.
Another series has as its system P14 CD8+ T cells. Format: in vivo, mouse. The note with it: 14 dpi LCMV-Cl13; cells treated in vitro, vs untreated.
A further series relates to B16-OVA tumor. Format: in vivo, mouse. The note with it: adoptive transfer of sugar-treated OT-1 T cells; vs untreated T cells. Here is the method: Naïve splenocytes from OT-1 mice were stimulated in vitro with OVA257-264 (500 nM) and IL-2 (60 IU/mL) in the presence or absence of an added compound for 3 days at a density of 1 million/mL (100 uL/well in 96/well plate), then expanded for 4 days. On day 7, PD-1, Tim3 and TCF-1 expressions were assessed by flow cytometry by staining cells with anti-CD8a (PerCP-Cy5.5), anti-Tim3 (BV421) and anti-TCF-1 (AF488) antibodies. For adoptive transfer, 0.6M B16-OVA cells (6×10^5) were inoculated subcutaneously 3 to 5 days before transfer in C57BL/6. On the day of adoptive transfer, mice were irradiated with 5 Gy X-ray, randomized according to tumor size, and intravenously injected with 0.2-0.3M of CD8+OT-1 T cells (2×10^5) expanded under different conditions, followed by administration of 50000 IU IL-2 every 12 h for four days. In the control group, mice were injected with cell-free vehicle only. For assessment of adoptive transfer of OT-1 CD8+ T cells activated and expanded by contacting the cells with fructose, on day 9 after transfer, anti-PD-1 (100 ug/mouse) was administered to the mice that had received T cell transfer. For assessment of adoptive transfer of OT-1 CD8+ T cells activated and expanded by contacting cells with Neu5Ac, on day 14 and day 21 after transfer, anti-PD-1 (100 ug/mouse) was administered to the mice that had received T cell transfer. The tumor growth was monitored every 3 to 4 days by measuring tumor size. Percent survival was also monitored and recorded within a period of 40 days post treatment. To evaluate tumor infiltrating OT-1 T cells, 0.6M B16-OVA cells (6×10^5) were inoculated subcutaneously 3 to 5 days before transfer in C57BL/6. On the day of adoptive transfer, mice were irradiated with 5 Gy X-ray, randomized according to tumor size, and intravenously injected with 0.2-0.3M of CD8+OT-1 T cells (2×10^5) expanded under different conditions, followed by administration of 50000 IU IL-2 every 12 h for four days. Tumors were then isolated and assessed for percentage of OT-I T cells from the total CD8+ T cells and OT-1 T cell number per gram of tumor tissue. To evaluate apoptosis, Naïve OT-1 splenocytes were stimulated by OVA257-264 (500 nM) without IL-2 in the presence of absence of sugars for 5 days followed by using Annexin V Apoptosis detection kit (Biolegend). […] To evaluate other cellular characteristics, naïve OT-1 splenocytes were stimulated by OVA257-264 (500 nM) with IL-2 (60 IU/mL) in the presence or absence of sugars for 7 or 8 days. On day 7 or 8 cells were taken and analyzed by assessment of ROS, NADPH/NADP+ ratio, and GSH/GSSG ratio.

Another series deals with OT-1 CD8+ T cells. Description: OT-1 splenocyte activation and expansion, day 7 flow cytometry. The note with it: for percentage of Tim3−TCF-1+ CD8+ T cells (in words): OT-1 cells day 7, compared with fructose or sucrose. Format: cell-based, mouse. Here is the method: Naïve splenocytes from OT-1 mice were stimulated in vitro with OVA257-264 (500 nM) and IL-2 (60 IU/mL) in the presence or absence of an added compound for 3 days at a density of 1 million/mL (100 uL/well in 96/well plate), then expanded for 4 days. On day 7, PD-1, Tim3 and TCF-1 expressions were assessed by flow cytometry by staining cells with anti-CD8a (PerCP-Cy5.5), anti-Tim3 (BV421) and anti-TCF-1 (AF488) antibodies. For adoptive transfer, 0.6M B16-OVA cells (6×10^5) were inoculated subcutaneously 3 to 5 days before transfer in C57BL/6. On the day of adoptive transfer, mice were irradiated with 5 Gy X-ray, randomized according to tumor size, and intravenously injected with 0.2-0.3M of CD8+OT-1 T cells (2×10^5) expanded under different conditions, followed by administration of 50000 IU IL-2 every 12 h for four days. In the control group, mice were injected with cell-free vehicle only. For assessment of adoptive transfer of OT-1 CD8+ T cells activated and expanded by contacting the cells with fructose, on day 9 after transfer, anti-PD-1 (100 ug/mouse) was administered to the mice that had received T cell transfer. For assessment of adoptive transfer of OT-1 CD8+ T cells activated and expanded by contacting cells with Neu5Ac, on day 14 and day 21 after transfer, anti-PD-1 (100 ug/mouse) was administered to the mice that had received T cell transfer. The tumor growth was monitored every 3 to 4 days by measuring tumor size. Percent survival was also monitored and recorded within a period of 40 days post treatment. To evaluate tumor infiltrating OT-1 T cells, 0.6M B16-OVA cells (6×10^5) were inoculated subcutaneously 3 to 5 days before transfer in C57BL/6. […] Tumors were then isolated and assessed for percentage of OT-I T cells from the total CD8+ T cells and OT-1 T cell number per gram of tumor tissue. […] On day 7 or 8 cells were taken and analyzed by assessment of ROS, NADPH/NADP+ ratio, and GSH/GSSG ratio.
(In flow cytometry, cells or beads pass a laser one at a time.)

Series [2] relates to OT-1 cells. Description: OT-1 cells treated with K+ or p38i. Format: cell-based, mouse. The source says: We also tested two small molecules (KCl and p38i) reported in papers. (Science 2019, 363, (6434); Cancer Cell 2020, 37, (6), 818-833 e9).
A further series relates to OT-I splenocytes. The experiment in a line: OT-I splenocyte culture with purine/pyrimidine pathway compounds. Format: cell-based, mouse. Here is the method: We therefore tested if purine and pyrimidine nucleotides have similar effects as N-Acetylneuraminic acid to help maintain less differentiated phenotypes of T cells during expansion. OT-I splenocytes were cultured with 500 nM […] peptide (OVA257-264) for three days at initial cell density of 1×10^6/mL to activate and expand the CD8+ T cell population. Different concentrations of the products or intermediates in purine or pyrimidine de novo synthesis pathways were added on day 3. The tested compounds include, e.g., guanosine, deoxyguanosine, adenosine, deoxyadenosine, inosine, xanthosine, orotidine, uridine, cytidine, deoxycytidine, thymidine, deoxythymidine, 5-Aminoimidazole-4-carboxamide ribonucleotide (AICAR), orotate, and dihydroorotate. The phenotype of expanded T cells were analyzed on day 5.

The mark [3] stands for this setting: added together with N-Acetylneuraminic acid on day 3, analyzed day 5.

Turning to `O=C[C@H](O)[C@@H](O)[C@H](O)[C@H](O)C(=O)O` [GlcA, glucuronic acid], in the series with OT-1 cells [1] (60 mM), the “Tim3^−TCF-1^+ ratio of CD8^+ T cells (%)” value is reported as 65.3% and the activity at 60000 µM stood at 97%.
For the molecule `O=C(CO)[C@@H](O)[C@H](O)[C@H](O)CO` [Fructose, fructose], the “Tim3^−TCF-1^+ ratio of CD8^+ T cells (%)” value in the series with OT-1 cells [1] (80 mM) amounted to 43.9%; in the series on P14 cells (Day6, 80 mM, w/o 55.0) it was 87.9%; in the series on P14 cells (Day9, 80 mM, w/o 3.5), 48.9%. The activity at 80000 µM in the series with OT-1 cells [1] (80 mM) turned out to be 109%. For the same molecule, the “Fold of proliferation, Normalized to W/O” value in the series with P14 cells (Day6, 80 mM) is recorded as 2.10 fold; in the series with P14 cells (Day9, 80 mM), 2.94 fold. Besides, in the series with P14 CD8+ T cells, the “percentages and total numbers of expanded virus-specific P14 CD8+ T cells in the spleen and liver” value is listed as “significantly higher”. For the same molecule, in the series with B16-OVA tumor, the “capabilities to control tumor growth” value is given as “significantly better”.
Consider `OC[C@H]1O[C@H](O[C@H]2O[C@H](CO)[C@@H](O)[C@H](O)[C@H]2O)[C@H](O)[C@@H](O)[C@@H]1O` [Trehalose, trehalose], for which the “Tim3^−TCF-1^+ ratio of CD8^+ T cells (%)” value with OT-1 cells [1] (80 mM) is on record as 35.4%; in the series with P14 cells (Day6, 80 mM, w/o 55.0), 83.2%; in the series with P14 cells (Day9, 80 mM, w/o 3.5), 34.6%. Moreover, the activity at 80000 µM with OT-1 cells [1] (80 mM) was found to be 84%. For the same molecule, the “Fold of proliferation, Normalized to W/O” value stood at 1.42 fold with P14 cells (Day6, 80 mM) and 1.47 fold in the series on P14 cells (Day9, 80 mM).
For `OC[C@H]1O[C@@H](O[C@H]2[C@H](O)[C@@H](O)C(O)O[C@@H]2CO)[C@H](O)[C@@H](O)[C@H]1O` (stereo partly shown) [Lactose, lactose], the “Tim3^−TCF-1^+ ratio of CD8^+ T cells (%)” value is recorded as 25.6% with OT-1 cells [1] (60 mM); 79.4% with P14 cells (Day6, 60 mM, w/o 55.0); 23.7% in the series on P14 cells (Day9, 60 mM, w/o 3.5). The activity at 60000 µM in the series on OT-1 cells [1] (60 mM) stood at 63%. The “Fold of proliferation, Normalized to W/O” value was found to be 1.87 fold with P14 cells (Day6, 60 mM) and 1.76 fold with P14 cells (Day9, 60 mM). The “percentages and total numbers of expanded virus-specific P14 CD8+ T cells in the spleen and liver” value in the series with P14 CD8+ T cells is on record as “significantly higher”. In the series with OT-1 CD8+ T cells, the “percentage of Tim3−TCF-1+ CD8+ T cells (in words)” value is given as “increased the percentage of Tim3−TCF-1+ CD8+ T cells but at a lower level”. For the same molecule, the “capabilities to control tumor growth” value with B16-OVA tumor is reported as “significantly better”.
As to `CCN(c1cc(-c2ccc(CN3CCOCC3)cc2)cc(C(=O)NCc2c(C)cc(C)[nH]c2=O)c1C)C1CCOCC1` [Taz, Tazemetostat], the “cell survival when added on day 0 together with OVA257-264 peptide” value in the series with OT-I CD8 T cells is “all cells were found dead”. For the same molecule, the “fold increase in progenitor exhausted cells” value in the series on OT-I CD8 T cells (day 7, Taz (3-7), 400 nM) was 2.5-3.5 fold. Also, the “progenitor exhausted cells (Tim3^−TCF-1^+)” value with OT-I CD8 T cells (day 7, Taz (3-7), 400 nM, without Taz 8.47%) is given as 27.7%.
Turning to `[Cl-].[K+]` [K^+, KCl], in the series on P14 cells (compared to untreated T cells), the “slowed down T cell proliferation” value is recorded as 10-20%. Besides, in the series on OT-1 cells [2], the “Tim3−TCF-1+ ratio of OT-1 cells (in words)” value is “increased” and the “proliferation of OT-1 cells (in words)” value is “slightly inhibit”. The “Proliferation fold, Normalized to W/O” value in the series on OT-1 cells [2] (Day 7, 40 mM, OT-1 cells) is given as 0.87 fold. The “Tim3^−TCF-1^+ ratio of CD8^+ T cells (%)” value in the series on OT-1 cells [2] (Day 7, 40 mM, W/O 9.5) was 80.7%.
As for `NC(=O)c1ncn([C@@H]2O[C@H](COP(=O)(O)O)[C@@H](O)[C@H]2O)c1N` [AICAR, 5-Aminoimidazole-4-carboxamide ribonucleotide], the cell proliferation result with OT-I splenocytes (setting [3]) is reported as “without significant impact on cell proliferation”.
For the molecule `Nc1nc2c(ncn2[C@@H]2O[C@H](CO)[C@@H](O)[C@H]2O)c(=O)[nH]1` [guanosine], the cell proliferation result in the series with OT-I splenocytes (setting [3]) is “without significant impact on cell proliferation”.
For `O=C[C@H](O)[C@@H](O)[C@@H](O)[C@H](O)CO` [Galactose, galactose], the “Fold of proliferation, Normalized to W/O” value was determined as 1.59 fold with P14 cells (Day6, 80 mM) and 1.87 fold in the series with P14 cells (Day9, 80 mM). The “Tim3^−TCF-1^+ ratio of CD8^+ T cells (%)” value with P14 cells (Day6, 80 mM, w/o 55.0) is given as 88.9%; in the series with P14 cells (Day9, 80 mM, w/o 3.5), 37.4%. In the series with OT-1 CD8+ T cells (80 mM, OT-1 cells), the T cell proliferation result is given as “significantly suppressed”. Further, the “percentage of Tim3−TCF-1+ CD8+ T cells (in words)” value with OT-1 CD8+ T cells is “increased the percentage of Tim3−TCF-1+ CD8+ T cells but at a lower level”.
With `N#Cc1cc(Nc2ncc3c(n2)CCCCC3=O)cs1` [Inhibitor G6PDi-1, reference compound], in the series on OT-I splenocytes (added on day 3, analyzed day 5), the cell proliferation entry is “without significant impact on cell proliferation” and the “increase of the proportion of Tim3−TCF1+ T cells by a factor” value is listed as 1.5.
